In patent US9428732B2, “Compositions and methods for differentiating pluripotent stem cells into primitive blood cells and uses thereof” (Primorigen Biosciences, Inc., priority 2011, dated 2016):

Assays:
[1] = test system: pluripotent lines (ES, iPS); experiment: Additional molecules added to Differentiation Medium 1, FACS and flow cytometry; assay type: cell-based, human; conditions: for total number of cells: added to Differentiation Medium 1 (contains DEAB): LG101506 1 uM, sodium selenite 100 nM, valproic acid 1 mM
Description: (§1) Cells from the differentiation cultures were collected at time points indicated and washed in phosphate-buffered saline (PBS) supplemented with 2% FBS. Adherent cells were individualized using TrypLE (Life Technologies, Carlsbad Calif.), passed through a 27.5-gauge needle and filtered through a 40-70 μm cell strainer (BD Falcon, San Diego, Calif., www.bdbiosciences.com). Cells were treated with 7-aminoactinomycin D (7AAD) before analysis, and positive cells were gated out of results. Cells were stained with fluorescence-conjugated antibodies for the hematopoietic stem and progenitor cell markers CD45, CD43, CD34, CD38, CD90; CD45RA. Cells were analyzed on a FACS Canto (BD, Franklin Lakes, N.J., www.bd.com).
We have completed a number of studies to establish other molecules that may further improve the yields and phenotypes of hematopoietic cells derived using Differentiation Medium 1. Tested compounds were Cripto, LY2228820, valproic acid (VPA), sodium selenite, and butein. In all instances, each molecule below was supplemented into Differentiation Medium 1 to study their effect in concert with DEAB. All control experiments for these molecules were cells differentiated using Differentiation Medium 1 (which already contains DEAB). The data we report below for these molecules illustrates how they may improve the yield of hematopoietic progenitors and phenotypic stem cells measured by FACS, flow cytometry, and CFU assays. […] The in vivo engraftment studies to confirm this for these molecules are underway.
(§2) It has been shown that DS DNA breaks reduce transplant efficiency of repopulating HSCs. In vitro derived blood from pluripotent stem cell has high levels of DNA damage. Inhibition of DNA damage and the DNA damage response, from reactive oxygen species (ROS) or other sources of damage (radiation, chemical etc) in pluripotent stem cell differentiation systems will decrease DNA damage and increase hematopoietic cell number, repopulating ability and increase the differentiation potential of the cells (i.e. expansion of downstream lineages). See Yahata et al. Blood, 2011, 118(11):2941-50). […] Adding sodium selenite (100 nM) and butein (10 uM) independently to Differentiation Medium 1 increased enzyme activity for protection against reactive oxygen species (ROS). […] See FIGS. 11A and 11B for sodium selenite and FIGS. 12A and 12B for butein. These studies are being expanded into dose response experiments from which we expect to identify optimal concentrations.
From the pluripotent stem cells differentiated with Differentiation Medium 1 supplemented with 1 mM of valproic acid, we see that all CD34+CD38− cells were 100% CD90+. […] Engraftment studies as described are also being conducted.

[2] = test system: pluripotent stem cells (H1 ES cells and CB1 iPS cells); experiment: CFU assay of cells differentiated in Differentiation Medium 1 plus additional molecule; assay type: cell-based, human; conditions: for size of CFU colonies: in the present system
Description: FIG. 14 depicts myeloid CFU cell count data for cells differentiated from pluripotent stem cells (H1 ES cells and CB1 iPS cells) in the presence of DEAB and each of Cripto (500 ng/ml), LY2228820 (shown as “LY222820”, 100 nM), Activin A, valproic acid (VPA, 1 mM), sodium selenite (100 nM), and butein (10 μM).
The differentiation cultures were trypsinized at the indicated time points and single-cell suspensions were generated following trypsinization. For the Colony Forming Unit (CFU) assays using methyl cellulose cultures, 25% of the cells were plated in 2 ml of MethoCult H4435 (STEMCELL Technologies, Vancouver, BC) in six-well plates. Alternatively, sorted CD45+, CD43+, CD34+, 7AAD-cells were sorted and plated at 500 cells per 2 ml Methocult media. Cells were incubated for 14 days in a humidified incubator at 37° C. with 5% CO2 and evaluated for colonies by bright-field microscopy (Zeiss (Oberkochen, Germany, www.zeiss.com) Axiovert 200 with a Zeiss Axiocam), Cells were resuspended in PBS supplemented with 2% FBS. For the lymphoid myeloid differentiation assays, either CD45+, CD43+, CD34+, 7AAD-hematopoietic progenitors, or CD45+, CD43+, CD34+, CD38−, CD90+, CD45RA− phenotypic HSCs were plated at 20-40 cells per well onto OP9 and OP9delta feeder lines for B-cell and T-cell differentiation, respectively, as previously described (Nozad Charoudeh H, Tang Y, Cheng M, Cilio C M, Jacobsen S E, Sitnicka E., Identification of an NK/T cell-restricted progenitor in adult bone marrow contributing to bone marrow- and thymic-dependent NK cell, Blood, 2010 Jul. 15; 116(2):183-92. NK cell differentiation as well as myeloid cell differentiation was also detected in this differentiation system. FACS analysis was performed 4-6 weeks after plating for markers of lymphoid cell differentiation with the markers indicated. Similar cell sortings were performed for single cell Terasaki plate assays of myeloid differentiation and expansion using StemSpan media (STEMCELL Technologies, Vancouver, BC) supplemented with TPO, SCF, FLT3, IL3, GM-CSF. Colony size was estimated by microscopy.
We have completed a number of studies to establish other molecules that may further improve the yields and phenotypes of hematopoietic cells derived using Differentiation Medium 1. Tested compounds were Cripto, LY2228820, valproic acid (VPA), sodium selenite, and butein. In all instances, each molecule below was supplemented into Differentiation Medium 1 to study their effect in concert with DEAB. […] The data we report below for these molecules illustrates how they may improve the yield of hematopoietic progenitors and phenotypic stem cells measured by FACS, flow cytometry, and CFU assays. […]

[3] = test system: NOD.Cg-Prkdc^scidI12rg^tm1Wjl/SzJ mice; experiment: Pluripotent stem cell derived hematopoietic cell transplantation, engraftment; assay type: in vivo; conditions: Differentiation Medium 1 (containing DEAB) supplemented with the molecule; studies underway, predicted
Description: Single-cell suspensions of the pluripotent stem cell differentiation cultures described herein were injected into sublethally irradiated (325 rad) NOD.Cg-Prkdc^scidI12rg^tm1Wjl/SzJ mice (JAX, Bar Harbor, Me., www.jax.org) via tail vein injections, intrafemoral injection, or cardiac injection. Peripheral blood was harvested at times indicated via tail vein or retro-orbital eye bleed or cardiac puncture on anesthetized mice. Bone marrow and spleen cells were harvested at the terminal stage of the transplant experiment. Bone marrow cells were isolated via pestle mortar crushing of bone followed by rinsing and 70 micron filtering. Cells were analyzed by FACS, CFU assay, or transplanted serially into secondary and tertiary mice. FACS analysis for the human pan hematopoietic marker CD45, progenitor marker CD34, myeloid markers CD11b, CD15, CD33 and lymphoid markers CD19, CD56 and CD132, and erythroid markers CD235. When erythrocytes were not being analyzed, the red cells were lysed using ammonium chloride solution (0.8% NH4Cl with 0.1 mM EDTA) (STEMCELL Technologies, Vancouver, BC), spun, and stained with antibodies against the above-mentioned markers. All animal experiments were conducted in accordance with Institutional Animal ethical use protocols.
We have confirmed short-term engraftment and reconstitution ability of hPSC-derived HSCs produced as described in Example 1, by injecting them into sublethally irradiated (325 rad) NOD.Cg-Prkdc^sicdI12rg^tm1Wjl/SzJ mice (JAX, Bar Harbor, Me., www.jax.org) via tail vein injections, intrafemoral injection, or cardiac injection. We transplanted NOD.Cg-Prkdc^scidI12rg^tm1Wjl/SzJ mice with 3×10^6 unsorted cells or 5000 FACS sorted phenotypic HSCs (CD45+, CD43+, CD34+, CD38−, CD90+, CD45RA−) from differentiations using Differentiation Medium 1 medium not including with DEAB (Control) and Differentiation Medium 1 medium including DEAB (DEAB HSCs). […] Typical published values range from 0.1%-1.0%, including those obtained from our control where DEAB was not used to generate the HSCs (0.34%±0.1%).

[4] = test system: H1 ES cells; experiment: LY2228820 added to Differentiation Medium 1, flow cytometry, ES cells; assay type: cell-based, human; conditions: 100 nM LY2228820; FIG. 8A
Description: as §1
(§3) We conducted experiments to determine whether the p38 inhibitor LY2228820 could further increase hematopoietic progenitor and phenotypic stem cell outputs by acting in concert with DEAB when added to Differentiation Medium 1. Human ES and iPS cells were differentiated to progenitors and phenotypic stem cells as described, except 100 nM of LY2228820 was added to Differentiation Medium 1. Cells were then harvested as described and subjected to flow cytometry and FACS analysis using fluorescently labeled antibodies for CD45, CD43, CD34, CD38, CD90, CD45RA as described. […]

[5] = test system: iPS cells; experiment: LY2228820 added to Differentiation Medium 1, flow cytometry, iPS cells; assay type: cell-based, human; conditions: 100 nM LY2228820; FIG. 8B
Description: as §1, §3

[6] = test system: pluripotent stem cell differentiation cultures; experiment: Enzyme activity for protection against reactive oxygen species; assay type: cell-based, human; conditions: added independently to Differentiation Medium 1: sodium selenite 100 nM, butein 10 uM
Excerpt: as §2

[7] = test system: human ES cells; experiment: Norepinephrine added to Differentiation Medium 1, flow cytometry; assay type: cell-based
Description: as §1
We conducted experiments to reveal if human embryo AGM region-harvested cells generate neurospheres in culture to confirm the presence of neural crest cells in the AGM region. We further completed some experiments to identify a component secreted from the neural crest cells that may be involved in definitive hematopoiesis. We harvested human embryo AGM region tissue and, using fluorescent labeled antibodies specific for neural crest cells, were able to identify the presence of neural crest cells in the AGM hematopoietic niche. […] Hypothesizing norepinephrine as a potential effector secreted from the neural crest cells, we tested it for its ability to further increase progenitor and phenotypic stem cell yields when added to Differentiation Medium 1 at a concentration of 10 uM or 300 uM. Human ES and iPS cells were differentiated to progenitors and phenotypic stem cells with Differentiation Medium 1 as described. The only difference is that 10 uM or 300 uM of norepinephrine was added to Differentiation Medium 1. Cells were then harvested as described and subjected to flow cytometry and FACS analysis using fluorescently labeled antibodies for CD45, CD43, CD34, CD38, CD90, CD45RA as described. […] Given the verified presence of neural crest cells in the AGM niche, we are confident that these cells play a role in establishing definitive hematopoiesis in the developing embryo. As such, long term engraftment and reconstitution ability of hematopoietic progenitors and phenotypic stem cells produced from iPS and ES cells differentiated with Differentiation Medium 1 plus norepinephrine as described above are currently underway. The engraftment and reconstitution studies will be conducted as described by the protocol outlined above in the Materials and Methods.

C/C(=C/C=C/C(C)=C/C(=O)O)c1cc(C(C)(C)C)cc(C(C)(C)C)c1OCC(F)F [LG101506]
total output of CD90+ cells ([1]; LG101506 1 uM in Differentiation Medium 1, ES, iPS): increases | total number of cells ([1]; butein 10 uM): increased | CFU cellularity and output [2]: enhances | suitability of generated phenotypic HSC cells for in vivo engraftment [3]: suitable for successful in vivo engraftment

CC(C)(C)Cn1c(N)nc2ccc(-c3[nH]c(C(C)(C)C)nc3-c3ccc(F)cc3)nc21 [LY2228820]
increase of phenotypic hematopoietic stem cell phenotype (CD45+, CD43+, CD34+, CD38−, CD90+, CD45RA−) over DEAB-containing Differentiation Medium 1 control [4]: ~20% | levels of the intermittent progenitor phenotype (CD45+, CD43+, CD34+, CD38−) [4]: unaffected | numbers of all cells with the progenitor and phenotypic stem cell phenotypes [5]: increased | size of CFU colonies [2]: increases CFU size | suitability of generated phenotypic HSC cells for in vivo engraftment [3]: suitable for successful in vivo engraftment

O=C(/C=C/c1ccc(O)c(O)c1)c1ccc(O)cc1O [butein]
CD34+, CD38− cells ([1]; added independently to Differentiation Medium 1: sodium selenite 100 nM, butein 10 uM): increased | total number of cells ([1]; butein 10 uM): increased | enzyme activity for protection against reactive oxygen species (ROS) [6]: increased | suitability of generated phenotypic HSC cells for in vivo engraftment [3]: suitable for successful in vivo engraftment

NC[C@H](O)c1ccc(O)c(O)c1 [norepinephrine]
increase in HSC number ([7]; hES-derived hematopoietic cells, norepinephrine in Differentiation Medium 1): 150% | fold improvement of numbers of phenotypic hematopoietic stem cells (CD45+, CD34+, CD43+, CD38−, CD90+, CD45RA−) ([7]; norepinephrine 10 uM or 300 uM in Differentiation Medium 1, FIG. 9C): statistically significant increases | total viable blood cells (CD45+) ([7]; norepinephrine 10 uM or 300 uM, FIG. 9A): insignificant improvements | intermediate cells (CD45+, CD43+, CD34+, CD38−) ([7]; norepinephrine 10 uM or 300 uM, FIG. 9B): insignificant improvements | colony forming ability ([2]; hES-derived hematopoietic cells, norepinephrine, data not shown): has an effect | suitability of generated phenotypic HSC cells for in vivo engraftment [3]: suitable for successful in vivo engraftment

CCCC(CCC)C(=O)O [valproic acid]
CD34+CD38− cells that were CD90+ ([1]; Differentiation Medium 1 supplemented with 1 mM of valproic acid): 100% | total number of cells ([1]; butein 10 uM): increased | suitability of generated phenotypic HSC cells for in vivo engraftment [3]: suitable for successful in vivo engraftment

B1: Cripto: protein expressed in hypoxic endosteal niche cells (protein, UniProt P13385 31-150, looked up)
Protein Cripto: LGHQEFARPSRGYLAFRDDSIWPQEEPAIRPRSSQRVPPMGIQHSKELNRTCCLNGGTCMLGSFCACPPSFYGRNCEHDVRKENCGSVPHDTWLPKKCSLCKCWHGQLRCFPQAFLPGCD
size of CFU colonies [2]: increases the size | suitability of generated phenotypic HSC cells for in vivo engraftment [3]: suitable for successful in vivo engraftment
